Measured values from US20040053962A1, “Methods for inhibiting proliferation and inducing apoptosis in cancer cells” (priority 2003, published 2004).

Columns and labels:
[1] = test system: pancreatic cancer cell lines; test: Proliferation of pancreatic cancer cell lines (summary statement); format: cell-based
Method: (§1) Cell culture. The following pancreatic cancer cell lines were used: MiaPaCa-2 and PANC-1 (poorly-differentiated); Capan-1 and Capan-2 (well-differentiated); and HPAF and AsPC-1 (pleomorphic). These were purchased from American Type Culture Collection (Rockville, Md.). PANC-1 and MiaPaCa-2 were grown in DMEM media; HPAF and AsPC-1 were grown in MEM media; and Capan-1 and Capan-2 were grown in-McCoy's media. Media were supplemented with 10% FBS, and the cells were grown as monolayers in a humidified atmosphere of […] and 5% CO2 at 37° C. The cells were regularly seeded into 75 cm^2 flask with media changed every other day. For experiments, cells were grown to 80% confluence, digested with trypsin-EDTA, and plated either in 12 or 24-well plates at a concentration of 50,000/ml, as appropriate.
DNA synthesis by [^3H]-Thymidine incorporation. Cells were plated in 12 or 24-well plates. After reaching 70% confluence, they were incubated in serum-free media for 24 hours, which was then replaced with fresh serum-free media with or without the appropriate concentration of leukotriene B4 receptor antagonist LY293111 (62.5-1000 nM), LTB4 (100-400 nM), or both. […] Radioactivity, indicating incorporation of ^3H-thymidine into DNA, was measured by adding a scintillation cocktail and counting on a scintillation counter (LKB RackBeta, Wallac, Turku, Finland)

MiaPaCa-2 cells = test: DNA fragmentation assay (agarose gel), MiaPaCa-2; format: cell-based; conditions: MiaPaCa-2, 250, 500 and 1000 nM for 48 hours; no ladder in control cells
Method: DNA fragmentation assay. For analysis of DNA fragmentation by agarose gel electrophoresis, treated pancreatic cancer cells were detached from 75 cm^2 flask with trypsin-EDTA, washed twice with PBS, resuspended in 1 ml lysis buffer (25 mM EDTA, 10 mM Tris, 0.5% Triton X-100, and 1% SDS), and freeze-thawed at −80° C. overnight. Then, an equal volume of PEG/NaCl stock solution was added to the lysates to give a final concentration of 0.25% PEG and 1 M NaCl, and the tubes were centrifuged at 13,200 g at 4° C. for 30 minutes. The supernatants containing fragmented small molecular weight DNA were then incubated with RNAse A (0.3 mg/ml) at 37° C. for one hour and then with […] proteinase K (10 mg/ml) for three hours. Samples were then extracted with phenol-chloroform and precipitated with 70% ethanol overnight. The pellets containing DNA were then resuspended in […] of TE buffer, subjected to electrophoresis on a 1.8% agarose gel containing ethidium bromide ([…]), visualized by UV illumination, and analyzed using a Molecular Analyst Gel Documentation system (Bio-rad Laboratories, Hercules, Calif.).

[2] = test system: pancreatic, colonic, and breast cancer cell lines; test: Proliferation by thymidine incorporation and cell number, all lines studied; format: cell-based
Method: (§2) DNA synthesis by [^3H]-Thymidine incorporation. Cells were plated in 12 or 24-well plates. After reaching 70% confluence, they were incubated in serum-free media for 24 hours, which was then replaced with fresh serum-free media with or without the appropriate concentration of leukotriene B4 receptor antagonist LY293111 (62.5-1000 nM), LTB4 (100-400 nM), or both. After the appropriate period of culture, cellular DNA synthesis was assayed by adding 0.5 μCi/well of [^3H]-methyl-thymidine and incubating for another 2 hours. Then, the cells were washed twice with PBS, fixed with 10% trichloroacetic acid (“TCA”) for 30 minutes, and solubilized by adding 0.4 M NaOH to each well. Radioactivity, indicating incorporation of ^3H-thymidine into DNA, was measured by adding a scintillation cocktail and counting on a scintillation counter (LKB RackBeta, Wallac, Turku, Finland)
Cell proliferation assay. Pancreatic cancer cells were seeded into 24-well microplates and incubated at 37° C. After 24 hours, cells were cultured in serum-free media with or without 250 nM LY293111 for 24, 48, and 72 hours. At the end of each time period, the cells were trypsinized to produce a single cell suspension, and the cell number in each well was determined using a Zi-Coulter Counter (Luton, Bedfordsire, United Kingdom). […]

[3] = test system: AsPC-1 pancreatic cancer cell line; test: [3H]-thymidine incorporation (DNA synthesis), AsPC-1; format: cell-based, human; conditions: mean±SEM; for proliferation (thymidine incorporation), % control: 24 hours
Method: as §1, §2

[4] = test system: MiaPaCa-2 pancreatic cancer cell line; test: [3H]-thymidine incorporation (DNA synthesis), MiaPaCa-2; format: cell-based
Method: as §1, §2

[5] = test system: PANC-1 pancreatic cancer cell line; test: [3H]-thymidine incorporation (DNA synthesis), PANC-1; format: cell-based; conditions: mean±SEM; for proliferation (thymidine incorporation), % control: 24 hours
Method: as §1, §2

[6] = test system: AsPc-1 human pancreatic tumor cell line xenograft; test: AsPc-1 xenograft tumor growth in athymic mice; format: in vivo; conditions: 0.01% LY293111 in the drinking water, started four days after s.c. injection of 3 million AsPc-1 cells
Method: Athymic mice received a subcutaneous injection of 3 million cancer cells in 50 μl of serum-free media. The highly malignant and aggressive pancreatic tumor cell line, AsPc-1, was used in this experiment. The tumors were allowed to establish and grow for four days prior to treatment with 0.01% LY293111 in the drinking water.

[7] = test system: Capan-2 pancreatic cancer cell line; test: [3H]-thymidine incorporation (DNA synthesis), Capan-2; format: cell-based; conditions: mean±SEM; for proliferation (thymidine incorporation), % control: 24 hours
Method: as §1, §2

Question: For CCCc1c(OCCCOc2cc(O)c(-c3ccc(F)cc3)cc2CC)cccc1Oc1ccccc1C(=O)O [LY293111, 2-(2-propyl-3-(3-(2-ethyl-4-(4-fluorophenyl)-5-hydroxyphenoxy)propoxy)-phenoxy)benzoic acid], which inhibition at 0.25 µM ([1]; LY293111 250 nM) is on record?
Answer: ≥ 50%

Question: And the inhibition at 1 µM ([1]; LY293111 1000 nM)?
Answer: > 95%

Question: And the “DNA fragmentation (apoptosis)” value (MiaPaCa-2 cells)?
Answer: distinctive DNA ladder

Question: What about the “effect on proliferation (thymidine incorporation and cell number)” value [2] of the same compound?
Answer: profound concentration-dependent and time-dependent inhibition of proliferation

Question: What about the “proliferation (thymidine incorporation), % control” value ([3]; AsPC-1, LY293111 62.5 nM) of the same compound?
Answer: 90.6 ± 4.6 % control

Question: And the “proliferation (thymidine incorporation), % control” value ([3]; AsPC-1, LY293111 125 nM)?
Answer: 72.8 ± 5.4 % control

Question: What about the “proliferation (thymidine incorporation), % control” value ([3]; AsPC-1, LY293111 250 nM) of the same compound?
Answer: 44.5 ± 7.7 % control

Question: And the “proliferation, % control (time course)” value ([3]; AsPC-1, LY293111 500 nM, 6 h)?
Answer: 65.8 ± 7.7 % control

Question: And the “proliferation, % control (time course)” value ([3]; AsPC-1, LY293111 500 nM, 12 h)?
Answer: 44.7 ± 4.1 % control

Question: What about the “proliferation, % control (time course)” value ([3]; AsPC-1, LY293111 500 nM, 24 h) of the same compound?
Answer: 16.7 ± 2.1 % control

Question: And the “proliferation (thymidine incorporation), % control” value ([3]; AsPC-1, LY293111 500 nM)?
Answer: 18.4 ± 6.9 % control

Question: What about the “proliferation (thymidine incorporation), % control” value ([3]; AsPC-1, LY293111 1000 nM) of the same compound?
Answer: 7.3 ± 1.2 % control

Question: What about the decrease of proliferation ([4]; MiaPaCa-2 (FIG. 6A), LY293111 250 nM, 24 hours) of the same compound?
Answer: 50%

Question: What about the “proliferation with combination of LTB4 and LY293111” value ([4]; MiaPaCa-2, 250 nM LY293111 + 100 nM LTB4, 24 hours) of the same compound?
Answer: restored to almost the control level

Question: And the “effect on thymidine incorporation” value ([4]; MiaPaCa-2, concentration-dependent (FIG. 1A, P<0.0001) and time-dependent (FIG. 1B, P<0.0001))?
Answer: inhibition of thymidine incorporation

Question: What about the “proliferation (thymidine incorporation), % control” value ([5]; PANC-1, LY293111 62.5 nM) of the same compound?
Answer: 89.4 ± 4.4 % control

Question: What about the “proliferation (thymidine incorporation), % control” value ([5]; PANC-1, LY293111 125 nM) of the same compound?
Answer: 65.2 ± 3.8 % control

Question: And the “proliferation, % control (time course)” value ([5]; PANC-1, LY293111 500 nM, 6 h)?
Answer: 60.2 ± 6.5 % control

Question: And the “proliferation, % control (time course)” value ([5]; PANC-1, LY293111 500 nM, 12 h)?
Answer: 48.9 ± 5.3 % control

Question: And the “proliferation, % control (time course)” value ([5]; PANC-1, LY293111 500 nM, 24 h)?
Answer: 13.6 ± 1.0 % control

Question: What about the “proliferation (thymidine incorporation), % control” value ([5]; PANC-1, LY293111 500 nM) of the same compound?
Answer: 12.4 ± 3.1 % control

Question: And the “proliferation (thymidine incorporation), % control” value ([5]; PANC-1, LY293111 1000 nM)?
Answer: 5.6 ± 1.0 % control

Question: What about the “tumor size vs control group” value [6] of the same compound?
Answer: smaller tumors

Question: And the “proliferation (thymidine incorporation), % control” value ([7]; Capan-2, LY293111 62.5 nM)?
Answer: 95.4 ± 8.7 % control

Question: And the “proliferation (thymidine incorporation), % control” value ([7]; Capan-2, LY293111 125 nM)?
Answer: 67.3 ± 6.8 % control

Question: And the “proliferation (thymidine incorporation), % control” value ([7]; Capan-2, LY293111 250 nM)?
Answer: 51.2 ± 5.8 % control

Question: And the “proliferation, % control (time course)” value ([7]; Capan-2, LY293111 500 nM, 6 h)?
Answer: 57.8 ± 4.3 % control

Question: What about the “proliferation, % control (time course)” value ([7]; Capan-2, LY293111 500 nM, 12 h) of the same compound?
Answer: 32.1 ± 5.6 % control

Question: What about the “proliferation, % control (time course)” value ([7]; Capan-2, LY293111 500 nM, 24 h) of the same compound?
Answer: 10.9 ± 6.0 % control

Question: And the “proliferation (thymidine incorporation), % control” value ([7]; Capan-2, LY293111 500 nM)?
Answer: 15.8 ± 9.6 % control

Question: And the “proliferation (thymidine incorporation), % control” value ([7]; Capan-2, LY293111 1000 nM)?
Answer: 8.9 ± 2.1 % control
